Results taken from patent US11498899B2, “Nitrone herbicides” (FMC Corporation, priority 2016, dated 2022).

Assays:
[1] = system: barnyardgrass (Echinochloa crus-galli); experiment: Test A preemergence, visual injury rating 0-100 (0 no effect, 100 complete control); format: in vivo
[2] = system: foxtail, giant (giant foxtail, Setaria faberii); experiment: Test A preemergence, visual injury rating 0-100; format: in vivo
[3] = system: kochia (Kochia scoparia); experiment: Test A preemergence, visual injury rating 0-100; format: in vivo
[4] = system: pigweed (Amaranthus retroflexus); experiment: Test A preemergence, visual injury rating 0-100; format: in vivo
[5] = system: ragweed (common ragweed, Ambrosia elatior); experiment: Test A preemergence, visual injury rating 0-100; format: in vivo
[6] = system: ryegrass, Italian (Italian ryegrass, Lolium multiflorum); experiment: Test A preemergence, visual injury rating 0-100; format: in vivo; conditions: 500 g ai/ha
[7] = system: barnyardgrass (Echinochloa crus-galli); experiment: Test A postemergence, visual injury rating 0-100; format: in vivo; conditions: 0 to 100 scale
[8] = system: blackgrass (Alopecurus myosuroides); experiment: Test A postemergence, visual injury rating 0-100; format: in vivo; conditions: 0 to 100 scale
[9] = system: corn (Zea mays); experiment: Test A postemergence, visual injury rating 0-100; format: in vivo; conditions: 0 to 100 scale
[10] = system: foxtail, giant (giant foxtail, Setaria faberii); experiment: Test A postemergence, visual injury rating 0-100; format: in vivo; conditions: 0 to 100 scale
[11] = system: galium (catchweed bedstraw, Galium aparine); experiment: Test A postemergence, visual injury rating 0-100; format: in vivo; conditions: 0 to 100 scale
[12] = system: kochia (Kochia scoparia); experiment: Test A postemergence, visual injury rating 0-100; format: in vivo; conditions: 0 to 100 scale
[13] = system: pigweed (Amaranthus retroflexus); experiment: Test A postemergence, visual injury rating 0-100; format: in vivo; conditions: 0 to 100 scale
[14] = system: ragweed (common ragweed, Ambrosia elatior); experiment: Test A postemergence, visual injury rating 0-100; format: in vivo; conditions: 0 to 100 scale
[15] = system: ryegrass, Italian (Italian ryegrass, Lolium multiflorum); experiment: Test A postemergence, visual injury rating 0-100; format: in vivo; conditions: 0 to 100 scale
[16] = system: wheat (Triticum aestivum); experiment: Test A postemergence, visual injury rating 0-100; format: in vivo; conditions: 0 to 100 scale
[17] = system: ducksalad (Heteranthera limosa); experiment: Test B flooded paddy test, visual rating 0-100; conditions: Flood, 250 g ai/ha, applied to paddy water, rated after 13 to 15 days
[18] = system: barnyardgrass (Echinochloa crus-galli); experiment: Test B flooded paddy test, visual rating 0-100; conditions: Flood, 250 g ai/ha, applied to paddy water, rated after 13 to 15 days
[19] = system: rice (Oryza sativa); experiment: Test B flooded paddy test, visual rating 0-100 (0 no effect, 100 complete control); conditions: Flood, 250 g ai/ha, applied to paddy water, rated after 13 to 15 days

Row | SMILES | Barnyardgrass plant response rating (0 to 100 scale) ([1]; 125 g ai/ha) | Barnyardgrass plant response rating (0 to 100 scale) ([1]; 500 g ai/ha) | Foxtail, Giant plant response rating (0 to 100 scale) ([2]; 125 g ai/ha) | Foxtail, Giant plant response rating (0 to 100 scale) ([2]; 500 g ai/ha) | Kochia plant response rating (0 to 100 scale) ([3]; 125 g ai/ha) | Kochia plant response rating (0 to 100 scale) ([3]; 500 g ai/ha) | Pigweed plant response rating (0 to 100 scale) ([4]; 125 g ai/ha) | Pigweed plant response rating (0 to 100 scale) ([4]; 500 g ai/ha) | Ragweed plant response rating (0 to 100 scale) ([5]; 125 g ai/ha) | Ragweed plant response rating (0 to 100 scale) ([5]; 500 g ai/ha) | Ryegrass, Italian plant response rating (0 to 100 scale) [6] | Barnyardgrass plant response rating ([7]; 125 g ai/ha) | Barnyardgrass plant response rating ([7]; 500 g ai/ha) | Blackgrass plant response rating ([8]; 125 g ai/ha) | Blackgrass plant response rating ([8]; 500 g ai/ha) | Corn plant response rating ([9]; 125 g ai/ha) | Corn plant response rating ([9]; 500 g ai/ha) | Foxtail, Giant plant response rating ([10]; 125 g ai/ha) | Foxtail, Giant plant response rating ([10]; 500 g ai/ha) | Galium plant response rating ([11]; 125 g ai/ha) | further results
1 | CCc1cc(CC)cc(C2CC(C)=[N+]([O-])C2C(=O)Nc2cccc(F)c2F)c1 (racemic) [Compound 109] | 90 | 100 | 90 | 90 | 0 | 50 | 0 | 0 | 0 | 30 | 100 | 50 | 80 | 80 | 90 | 80 | 90 | 80 | 90 | 20 | Galium plant response rating ([11]; 500 g ai/ha): 20; Kochia plant response rating ([12]; 125 g ai/ha): 0; Kochia plant response rating ([12]; 500 g ai/ha): 0; Pigweed plant response rating ([13]; 125 g ai/ha): 0; Pigweed plant response rating ([13]; 500 g ai/ha): 0; Ragweed plant response rating ([14]; 125 g ai/ha): 0; Ragweed plant response rating ([14]; 500 g ai/ha): 0; Ryegrass, Italian plant response rating ([15]; 125 g ai/ha): 70; Ryegrass, Italian plant response rating ([15]; 500 g ai/ha): 80; Wheat plant response rating ([16]; 125 g ai/ha): 20; Wheat plant response rating ([16]; 500 g ai/ha): 80; Ducksalad plant response rating (0 to 100 scale) [17]: 0; Barnyardgrass plant response rating (0 to 100 scale) [18]: 0; Rice plant response rating (0 to 100 scale) [19]: 0
2 | CC1=[N+]([O-])C(C(=O)Nc2cccc(F)c2F)C(c2cc(C(F)(F)F)cc(C(F)(F)F)c2)C1 (racemic) [Compound 110] | 90 | 90 | 90 | 90 | 0 | 20 | 0 | 60 | 50 | 80 | 90 | 40 | 90 | 80 | 90 | 80 | 90 | 80 | 90 | 50 | Galium plant response rating ([11]; 500 g ai/ha): 70; Kochia plant response rating ([12]; 125 g ai/ha): 0; Kochia plant response rating ([12]; 500 g ai/ha): 50; Pigweed plant response rating ([13]; 125 g ai/ha): 0; Pigweed plant response rating ([13]; 500 g ai/ha): 20; Ragweed plant response rating ([14]; 125 g ai/ha): 0; Ragweed plant response rating ([14]; 500 g ai/ha): 70; Ryegrass, Italian plant response rating ([15]; 125 g ai/ha): 70; Ryegrass, Italian plant response rating ([15]; 500 g ai/ha): 80; Wheat plant response rating ([16]; 125 g ai/ha): 50; Wheat plant response rating ([16]; 500 g ai/ha): 80; Ducksalad plant response rating (0 to 100 scale) [17]: 0; Barnyardgrass plant response rating (0 to 100 scale) [18]: 0; Rice plant response rating (0 to 100 scale) [19]: 0
3 | CC1=[N+]([O-])C(C(=O)Nc2cccc(F)c2F)C(c2cc(C)c(F)c(C)c2)C1 (racemic) [Compound 111] | 90 | 90 | 90 | 90 | 0 | 90 | 20 | 60 | 0 | 90 | 90 | 70 | 90 | 80 | 80 | 70 | 90 | 40 | 90 | 50 | Galium plant response rating ([11]; 500 g ai/ha): 70; Kochia plant response rating ([12]; 125 g ai/ha): 0; Kochia plant response rating ([12]; 500 g ai/ha): 0; Pigweed plant response rating ([13]; 125 g ai/ha): 0; Pigweed plant response rating ([13]; 500 g ai/ha): 20; Ragweed plant response rating ([14]; 125 g ai/ha): 30; Ragweed plant response rating ([14]; 500 g ai/ha): 70; Ryegrass, Italian plant response rating ([15]; 125 g ai/ha): 40; Ryegrass, Italian plant response rating ([15]; 500 g ai/ha): 80; Wheat plant response rating ([16]; 125 g ai/ha): 50; Wheat plant response rating ([16]; 500 g ai/ha): 70; Ducksalad plant response rating (0 to 100 scale) [17]: 0; Barnyardgrass plant response rating (0 to 100 scale) [18]: 0; Rice plant response rating (0 to 100 scale) [19]: 0
4 | CC1=[N+]([O-])C(C(=O)Nc2cccc(F)c2F)C(c2cc(C)cc(C)c2)C1 (racemic) [Compound 112] | 90 | 100 | 90 | 100 | 50 | 90 | 0 | 70 | 40 | 80 | 100 | 70 | 90 | 80 | 80 | 80 | 90 | 90 | 90 | 50 | Galium plant response rating ([11]; 500 g ai/ha): 70; Kochia plant response rating ([12]; 125 g ai/ha): 0; Kochia plant response rating ([12]; 500 g ai/ha): 20; Pigweed plant response rating ([13]; 125 g ai/ha): 0; Pigweed plant response rating ([13]; 500 g ai/ha): 0; Ragweed plant response rating ([14]; 125 g ai/ha): 0; Ragweed plant response rating ([14]; 500 g ai/ha): 60; Ryegrass, Italian plant response rating ([15]; 125 g ai/ha): 40; Ryegrass, Italian plant response rating ([15]; 500 g ai/ha): 90; Wheat plant response rating ([16]; 125 g ai/ha): 40; Wheat plant response rating ([16]; 500 g ai/ha): 70; Ducksalad plant response rating (0 to 100 scale) [17]: 45; Barnyardgrass plant response rating (0 to 100 scale) [18]: 70; Rice plant response rating (0 to 100 scale) [19]: 0
5 | CC1=[N+]([O-])C(C(=O)Nc2cccc(F)c2F)C(c2ccc(OC(F)(F)F)c(F)c2)C1 (racemic) [Compound 113] | 90 | 90 | 90 | 90 | 10 | 90 | 30 | 60 | 0 | 70 | 80 | 30 | 80 | 40 | 80 | 20 | 80 | 80 | 90 | 50 | Galium plant response rating ([11]; 500 g ai/ha): 70; Kochia plant response rating ([12]; 125 g ai/ha): 0; Kochia plant response rating ([12]; 500 g ai/ha): 40; Pigweed plant response rating ([13]; 125 g ai/ha): 0; Pigweed plant response rating ([13]; 500 g ai/ha): 20; Ragweed plant response rating ([14]; 125 g ai/ha): 50; Ragweed plant response rating ([14]; 500 g ai/ha): 50; Ryegrass, Italian plant response rating ([15]; 125 g ai/ha): 0; Ryegrass, Italian plant response rating ([15]; 500 g ai/ha): 50; Wheat plant response rating ([16]; 125 g ai/ha): 0; Wheat plant response rating ([16]; 500 g ai/ha): 50; Ducksalad plant response rating (0 to 100 scale) [17]: 0; Barnyardgrass plant response rating (0 to 100 scale) [18]: 0; Rice plant response rating (0 to 100 scale) [19]: 0
